{"source": "paper PMC8201479", "about": "“Trisubstituted Pyrrolinones as Small-Molecule Inhibitors Disrupting the Protein–RNA Interaction of LIN28 and Let-7” (ACS Medicinal Chemistry Letters, 2021)", "key": {"LIN28–let-7 interaction [1]": {"target": "T1, LIN28–let-7 interaction (Homo sapiens, UniProt Q9H9Z2)", "T1 construct": "Purified LIN28A (residues 16–187) was incubated at a concentration of 200 nM; His-tag (cleaved yes); made in house; host or cells: Escherichia coli BL21(DE3)", "T1 sequence (Q9H9Z2 16-187)": "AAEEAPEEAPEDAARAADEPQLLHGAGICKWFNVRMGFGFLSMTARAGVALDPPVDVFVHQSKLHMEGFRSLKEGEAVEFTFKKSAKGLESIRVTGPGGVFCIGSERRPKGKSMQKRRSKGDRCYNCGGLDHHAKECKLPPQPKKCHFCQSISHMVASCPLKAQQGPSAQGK", "assay": "Fluorescence polarization (FP) assay, LIN28A (residues 16–187) and FAM-labeled preE-let-7f-1", "assay_type": "binding", "conditions": "text and figures; C-labels = library sample, PH-labels = in-house resynthesized; read-out: IC50 in the FP assay", "method": "Protein expression and purification.\n19 vector and overexpressed in Escherichia coli BL21(DE3). The culture was incubated at 37 °C until\nthe absorbance at 600 nm (OD600) reached 0.5–0.7. IPTG was added to a final concentration of\n300 µM, and overnight induction was performed at 18 °C. Cells were harvested by centrifugation.\nThe bacterial pellet was resuspended in lysis buffer (50 mM NaH2PO4, pH 7.5, 300 mM NaCl,\n0.1 mM PMSF) and lysed using a Microfluidizer (Microfluidics) . A fresh portion of 0.1 mM PMSF\nand Triton X-100 (1% final concentration) were added. The lysate was cleared by ultra centrifugation\nat 30000 xg and 4 °C for 1 h. The protein purification was performed using immobilized nickel\n300 mM NaCl and 5 % glycerol. Gradient elution was performed with a maximum of 0.5 M imidazole.\nSubsequently, the affinity tag was cleaved using His6 -TEV-protease and the protease and unspecific\nbinders were eliminated by a second nickel affinity chromatography. After protein concentration\nLIN28A containing fractions were concentrated and applied to a High Load Superdex 75 pg 16/600\ncolumn (GE Healthcare) with gel-filtration buffer (30 mM NaH2PO4, pH 7.5, 50 mM NaCl, 5%\nglycerol, 2 mM β-ME). The purified protein was concentrated and stored at -80 °C until further\nFluorescence polarization. The fluorescence polarization assay was performed in black low volume\nIC50 measurements were performed with three technical\nminutes with compound concentrations ranging from 0.3 nM to 100 µM in FP assay buffer (20 mM\nTris, pH 7, 100 mM NaCl, 5 mM MgCl2, 2 mM glutathione (reduced), 0.1 % NP-40). Subsequently,\nFAM-labeled preE-let-7f-1 (mus musculus) ([…]-\nFAM, synthesized by IDT) was added to a final concentration of 2 nM. Fluorescence polarization\nwas detected after incubation at room temperature using a TECAN Spark plate reader. Half maximal\ninhibitory concentrations (IC50) were determined using GraphPad Prism 7. […]"}, "LIN28–let-7 interaction [2]": {"target": "T1, LIN28–let-7 interaction", "assay": "Fluorescence polarization (FP) assay, LIN28A (residues 16–187) and FAM-labeled preE-let-7f-1", "assay_type": "binding", "conditions": "for IC50: Table 1, quadruplicate, eight concentrations, read-out: IC50, LIN28–let-7 inhibitory activity; for FP, Average (mP): raw data Table S3, four replicates"}, "[3]": {"conditions": "starting from a maximum concentration of 60 μM"}, "[4]": {"conditions": "starting from 30 μM, extrapolated based on the observed IC50 curves"}}, "note": "Read-outs that look alike come from different tables or passages of the source.", "data": [{"smiles": "O=C(C1=C(O)C(=O)N(c2ccc(O)c(C(=O)O)c2)C1c1ccc(-c2nccs2)cc1)c1ccccc1", "note": "(centres unmarked) [C879/PH-34]", "values": [{"measurement": "IC50", "setting": "LIN28–let-7 interaction [1]", "value": "< 30", "unit": "µM"}, {"measurement": "IC50", "setting": "LIN28–let-7 interaction [2]; [3]", "value": 12, "unit": "µM"}, {"measurement": "FP, Average (mP)", "setting": "LIN28–let-7 interaction [2]; 0.041 μM compound", "value": 117.25, "unit": "mP"}, {"measurement": "FP, Average (mP)", "setting": "LIN28–let-7 interaction [2]; 0.123 μM compound", "value": 110.90, "unit": "mP"}, {"measurement": "FP, Average (mP)", "setting": "LIN28–let-7 interaction [2]; 0.368 μM compound", "value": 115.50, "unit": "mP"}, {"measurement": "FP, Average (mP)", "setting": "LIN28–let-7 interaction [2]; 1.103 μM compound", "value": 113.50, "unit": "mP"}, {"measurement": "FP, Average (mP)", "setting": "LIN28–let-7 interaction [2]; 3.125 μM compound", "value": 89.73, "unit": "mP"}, {"measurement": "FP, Average (mP)", "setting": "LIN28–let-7 interaction [2]; 9.375 μM compound", "value": 88.63, "unit": "mP"}, {"measurement": "FP, Average (mP)", "setting": "LIN28–let-7 interaction [2]; 29.688 μM compound", "value": 73.03, "unit": "mP"}, {"measurement": "FP, Average (mP)", "setting": "LIN28–let-7 interaction [2]; 59.375 μM compound", "value": 53.40, "unit": "mP"}]}, {"smiles": "O=C(O)c1ccc(C2C(C(=O)c3ccccc3)=C(O)C(=O)N2c2ccc(O)c(C(=O)O)c2)cc1", "note": "(centres unmarked) [C880/PH-39]", "values": [{"measurement": "IC50", "setting": "LIN28–let-7 interaction [1]", "value": "< 30", "unit": "µM"}, {"measurement": "IC50", "setting": "LIN28–let-7 interaction [2]; [3]", "value": 6, "unit": "µM"}, {"measurement": "FP, Average (mP)", "setting": "LIN28–let-7 interaction [2]; 0.041 μM compound", "value": 111.50, "unit": "mP"}, {"measurement": "FP, Average (mP)", "setting": "LIN28–let-7 interaction [2]; 0.123 μM compound", "value": 113.50, "unit": "mP"}, {"measurement": "FP, Average (mP)", "setting": "LIN28–let-7 interaction [2]; 0.368 μM compound", "value": 115.75, "unit": "mP"}, {"measurement": "FP, Average (mP)", "setting": "LIN28–let-7 interaction [2]; 1.103 μM compound", "value": 112.00, "unit": "mP"}, {"measurement": "FP, Average (mP)", "setting": "LIN28–let-7 interaction [2]; 3.125 μM compound", "value": 91.63, "unit": "mP"}, {"measurement": "FP, Average (mP)", "setting": "LIN28–let-7 interaction [2]; 9.375 μM compound", "value": 55.98, "unit": "mP"}, {"measurement": "FP, Average (mP)", "setting": "LIN28–let-7 interaction [2]; 29.688 μM compound", "value": 41.63, "unit": "mP"}, {"measurement": "FP, Average (mP)", "setting": "LIN28–let-7 interaction [2]; 59.375 μM compound", "value": 45.53, "unit": "mP"}]}, {"smiles": "O=C(O)c1ccc(C2C(C(=O)c3ccccc3)=C(O)C(=O)N2c2cccc(C(=O)O)c2)cc1", "note": "(centres unmarked) [C881]", "values": [{"measurement": "IC50", "setting": "LIN28–let-7 interaction [2]; [4]", "value": "> 100", "unit": "µM"}]}, {"smiles": "O=C(O)c1ccc(C2C(C(=O)c3ccccc3)=C(O)C(=O)N2c2ccc(C(=O)O)cc2)cc1", "note": "(centres unmarked) [C882]", "values": [{"measurement": "IC50", "setting": "LIN28–let-7 interaction [2]; [4]", "value": "> 100", "unit": "µM"}]}, {"smiles": "COc1ccc(C(=O)C2=C(O)C(=O)N(c3cccc(C(=O)O)c3)C2c2ccc([N+](=O)[O-])cc2)cc1", "note": "(centres unmarked) [C883]", "values": [{"measurement": "IC50", "setting": "LIN28–let-7 interaction [2]; [4]", "value": "> 100", "unit": "µM"}]}, {"smiles": "COc1ccc(C(=O)C2=C(O)C(=O)N(c3ccc(C(=O)O)cc3)C2c2ccc([N+](=O)[O-])cc2)cc1", "note": "(centres unmarked) [C884]", "values": [{"measurement": "IC50", "setting": "LIN28–let-7 interaction [2]; [4]", "value": "> 100", "unit": "µM"}]}, {"smiles": "COc1ccc(C(=O)C2=C(O)C(=O)N(c3ccc(O)c(C(=O)O)c3)C2c2ccc(C(=O)O)cc2)cc1", "note": "(centres unmarked) [C885]", "values": [{"measurement": "IC50", "setting": "LIN28–let-7 interaction [2]; [4]", "value": "30 to 40", "unit": "µM"}]}, {"smiles": "COc1ccc(C(=O)C2=C(O)C(=O)N(c3cccc(C(=O)O)c3)C2c2ccc(C(=O)O)cc2)cc1", "note": "(centres unmarked) [C886]", "values": [{"measurement": "IC50", "setting": "LIN28–let-7 interaction [2]; [4]", "value": "> 100", "unit": "µM"}]}, {"smiles": "COc1ccc(C(=O)C2=C(O)C(=O)N(c3ccc(C(=O)O)cc3)C2c2ccc(C(=O)O)cc2)cc1", "note": "(centres unmarked) [C887]", "values": [{"measurement": "IC50", "setting": "LIN28–let-7 interaction [2]; [4]", "value": "> 100", "unit": "µM"}]}, {"smiles": "COc1ccc(C(=O)C2=C(O)C(=O)N(c3cccc(-c4nnn[nH]4)c3)C2c2ccc(C(=O)O)cc2)cc1", "note": "(centres unmarked) [C888]", "values": [{"measurement": "IC50", "setting": "LIN28–let-7 interaction [2]; [4]", "value": "> 100", "unit": "µM"}]}, {"smiles": "O=C(O)c1cccc(N2C(=O)C(O)=C(C(=O)c3ccc(Br)cc3)C2c2ccc([N+](=O)[O-])cc2)c1", "note": "(centres unmarked) [C891]", "values": [{"measurement": "IC50", "setting": "LIN28–let-7 interaction [2]; [4]", "value": "> 100", "unit": "µM"}]}, {"smiles": "O=C(C1=C(O)C(=O)N(c2cccc(-c3nnn[nH]3)c2)C1c1ccc([N+](=O)[O-])cc1)c1ccc(Br)cc1", "note": "(centres unmarked) [C892]", "values": [{"measurement": "IC50", "setting": "LIN28–let-7 interaction [2]; [4]", "value": "> 100", "unit": "µM"}]}, {"smiles": "O=C(O)c1ccc(C2C(C(=O)c3ccc(Br)cc3)=C(O)C(=O)N2c2ccc(O)c(C(=O)O)c2)cc1", "note": "(centres unmarked) [C893]", "values": [{"measurement": "IC50", "setting": "LIN28–let-7 interaction [2]; [4]", "value": "30 to 40", "unit": "µM"}]}, {"smiles": "O=C(O)c1ccc(C2C(C(=O)c3ccc(Br)cc3)=C(O)C(=O)N2c2cccc(C(=O)O)c2)cc1", "note": "(centres unmarked) [C894]", "values": [{"measurement": "IC50", "setting": "LIN28–let-7 interaction [2]; [4]", "value": "> 100", "unit": "µM"}]}]}
